How the values were obtained:
Experiment in all cases: radiometric filter-binding kinase assay
EPHA2 (human) = EPHA2 (human) (UniProt P29317)
BRSK1 (human) = BRSK1 (human) (UniProt Q8TDC3)
MARK4 (human) = MARK4 (human) (UniProt Q96L34)
GSK3B (human) = GSK3B (human) (UniProt P49841)
PRKCZ (human) = PRKCZ (human) (UniProt Q05513)
MAPK12 (human) = MAPK12 (human) (UniProt P53778)
MST4 (human) = MST4 (human) (UniProt Q9P289)
MAP2K2 (human) = MAP2K2 (human) (UniProt P36507)
MAP3K5 (human) = MAP3K5 (human) (UniProt Q99683)
[1] = molecular target: STK11 CAB39 STRADA (human) (UniProt Q9Y376+Q7RTN6+Q15831)
PAK6 (human) = PAK6 (human) (UniProt Q9NQU5)
MAP3K11 (human) = MAP3K11 (human) (UniProt Q16584)
NUAK1 (human) = NUAK1 (human) (UniProt O60285)
EPHB3 (human) = EPHB3 (human) (UniProt P54753)
Sequence of EPHB3 (human) (P54753 whole entry, looked up): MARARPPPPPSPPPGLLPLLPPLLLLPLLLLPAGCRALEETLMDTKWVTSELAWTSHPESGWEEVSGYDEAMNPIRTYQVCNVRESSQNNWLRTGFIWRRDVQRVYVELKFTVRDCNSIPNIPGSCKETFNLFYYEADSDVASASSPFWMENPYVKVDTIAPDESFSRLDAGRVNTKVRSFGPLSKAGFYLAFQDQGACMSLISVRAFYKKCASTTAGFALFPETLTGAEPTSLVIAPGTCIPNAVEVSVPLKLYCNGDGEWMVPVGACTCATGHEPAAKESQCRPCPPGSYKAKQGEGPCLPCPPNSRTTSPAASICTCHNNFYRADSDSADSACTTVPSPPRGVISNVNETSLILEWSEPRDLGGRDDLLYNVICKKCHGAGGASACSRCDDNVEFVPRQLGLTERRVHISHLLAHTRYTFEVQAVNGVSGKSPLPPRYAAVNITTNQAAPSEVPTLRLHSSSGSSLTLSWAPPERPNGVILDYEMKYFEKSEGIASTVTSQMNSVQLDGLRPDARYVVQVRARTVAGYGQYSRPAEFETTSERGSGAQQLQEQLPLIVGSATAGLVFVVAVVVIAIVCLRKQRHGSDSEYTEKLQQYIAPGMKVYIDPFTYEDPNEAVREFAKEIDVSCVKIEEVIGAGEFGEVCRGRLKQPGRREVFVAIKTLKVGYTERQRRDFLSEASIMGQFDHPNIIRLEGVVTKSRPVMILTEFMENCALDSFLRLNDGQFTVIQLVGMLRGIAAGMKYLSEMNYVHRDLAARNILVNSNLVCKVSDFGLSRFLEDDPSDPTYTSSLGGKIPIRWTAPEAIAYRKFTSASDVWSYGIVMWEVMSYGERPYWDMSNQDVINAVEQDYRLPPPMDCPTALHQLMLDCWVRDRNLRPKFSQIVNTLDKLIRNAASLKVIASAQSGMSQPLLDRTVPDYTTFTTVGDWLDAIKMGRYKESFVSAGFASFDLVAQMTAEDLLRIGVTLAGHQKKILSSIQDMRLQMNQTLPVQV

PRKCA (human) = PRKCA (human) (UniProt P17252)
MARK1 (human) = MARK1 (human) (UniProt Q9P0L2)
ERBB4 (human) = ERBB4 (human) (UniProt Q15303)
PAK4 (human) = PAK4 (human) (UniProt O96013)
MELK (human) = MELK (human) (UniProt Q14680)
NTRK1 (human) = NTRK1 (human) (UniProt P04629)
MAP3K1 (human) = MAP3K1 (human) (UniProt Q13233)
MAPKAPK2 (human) = MAPKAPK2 (human) (UniProt P49137)
Sequence of MAPKAPK2 (human) (P49137 whole entry, looked up): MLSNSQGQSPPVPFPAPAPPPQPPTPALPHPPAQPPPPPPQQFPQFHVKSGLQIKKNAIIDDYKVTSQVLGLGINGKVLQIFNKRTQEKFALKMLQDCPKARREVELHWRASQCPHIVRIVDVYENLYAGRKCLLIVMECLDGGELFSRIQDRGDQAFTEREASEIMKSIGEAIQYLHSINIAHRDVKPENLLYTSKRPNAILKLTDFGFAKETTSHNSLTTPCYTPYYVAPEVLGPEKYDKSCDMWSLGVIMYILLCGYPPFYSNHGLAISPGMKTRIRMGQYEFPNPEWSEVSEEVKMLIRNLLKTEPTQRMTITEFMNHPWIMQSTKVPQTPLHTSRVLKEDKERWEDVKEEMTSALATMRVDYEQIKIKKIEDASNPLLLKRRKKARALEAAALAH

[2] = test system: AKT1 (human), P31749 [S473D]
INSR (human) = INSR (human) (UniProt P06213)
HIPK3 (human) = HIPK3 (human) (UniProt Q9H422)
AURKA (human) = AURKA (human) (UniProt O14965)
MAPK9 (human) = MAPK9 (human) (UniProt P45984)
MAP3K9 (human) = MAP3K9 (human) (UniProt P80192)
Sequence of MAP3K9 (human) (P80192 whole entry, looked up): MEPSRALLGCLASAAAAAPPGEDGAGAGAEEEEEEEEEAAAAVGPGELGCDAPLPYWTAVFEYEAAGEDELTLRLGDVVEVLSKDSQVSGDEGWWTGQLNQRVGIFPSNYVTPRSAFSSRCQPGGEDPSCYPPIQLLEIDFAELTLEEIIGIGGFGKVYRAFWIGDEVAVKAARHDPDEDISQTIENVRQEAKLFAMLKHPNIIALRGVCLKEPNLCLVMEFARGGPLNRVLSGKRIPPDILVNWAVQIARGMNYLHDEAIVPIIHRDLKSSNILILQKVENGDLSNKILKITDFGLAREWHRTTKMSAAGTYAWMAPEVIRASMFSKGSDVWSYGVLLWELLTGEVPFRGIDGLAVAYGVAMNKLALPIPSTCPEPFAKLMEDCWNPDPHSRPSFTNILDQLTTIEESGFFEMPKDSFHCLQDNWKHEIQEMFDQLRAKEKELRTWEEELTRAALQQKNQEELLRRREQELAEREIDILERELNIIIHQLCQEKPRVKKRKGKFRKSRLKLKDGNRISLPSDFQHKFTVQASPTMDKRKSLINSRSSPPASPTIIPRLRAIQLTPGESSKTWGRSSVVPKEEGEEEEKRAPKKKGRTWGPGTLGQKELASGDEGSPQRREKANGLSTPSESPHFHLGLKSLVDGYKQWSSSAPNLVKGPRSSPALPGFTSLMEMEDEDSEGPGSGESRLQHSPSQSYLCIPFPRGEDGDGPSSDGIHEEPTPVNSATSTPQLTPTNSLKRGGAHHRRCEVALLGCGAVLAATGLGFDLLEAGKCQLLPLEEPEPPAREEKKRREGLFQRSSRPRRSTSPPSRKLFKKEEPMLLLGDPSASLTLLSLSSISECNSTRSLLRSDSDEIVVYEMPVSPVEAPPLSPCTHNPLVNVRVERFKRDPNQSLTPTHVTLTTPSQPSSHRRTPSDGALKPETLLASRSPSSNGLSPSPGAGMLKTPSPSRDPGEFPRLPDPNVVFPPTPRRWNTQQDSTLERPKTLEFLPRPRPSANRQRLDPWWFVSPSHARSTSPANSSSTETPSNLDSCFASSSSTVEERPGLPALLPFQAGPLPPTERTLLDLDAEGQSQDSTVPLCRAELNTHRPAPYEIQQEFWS

PKN2 (human) = PKN2 (human) (UniProt Q16513)
DYRK2 (human) = DYRK2 (human) (UniProt Q92630)
IRAK4 (human) = IRAK4 (human) (UniProt Q9NWZ3)
PIM1 (human) = PIM1 (human) (UniProt P11309)
EEF2K (human) = EEF2K (human) (UniProt O00418)
MAP3K7 TAB1 (human) = MAP3K7 TAB1 (human) (UniProt Q15750+O43318)
MAP2K6 (human) = MAP2K6 (human) (UniProt P52564)
MARK2 (human) = MARK2 (human) (UniProt Q7KZI7)
Sequence of MARK2 (human) (Q7KZI7 whole entry, looked up): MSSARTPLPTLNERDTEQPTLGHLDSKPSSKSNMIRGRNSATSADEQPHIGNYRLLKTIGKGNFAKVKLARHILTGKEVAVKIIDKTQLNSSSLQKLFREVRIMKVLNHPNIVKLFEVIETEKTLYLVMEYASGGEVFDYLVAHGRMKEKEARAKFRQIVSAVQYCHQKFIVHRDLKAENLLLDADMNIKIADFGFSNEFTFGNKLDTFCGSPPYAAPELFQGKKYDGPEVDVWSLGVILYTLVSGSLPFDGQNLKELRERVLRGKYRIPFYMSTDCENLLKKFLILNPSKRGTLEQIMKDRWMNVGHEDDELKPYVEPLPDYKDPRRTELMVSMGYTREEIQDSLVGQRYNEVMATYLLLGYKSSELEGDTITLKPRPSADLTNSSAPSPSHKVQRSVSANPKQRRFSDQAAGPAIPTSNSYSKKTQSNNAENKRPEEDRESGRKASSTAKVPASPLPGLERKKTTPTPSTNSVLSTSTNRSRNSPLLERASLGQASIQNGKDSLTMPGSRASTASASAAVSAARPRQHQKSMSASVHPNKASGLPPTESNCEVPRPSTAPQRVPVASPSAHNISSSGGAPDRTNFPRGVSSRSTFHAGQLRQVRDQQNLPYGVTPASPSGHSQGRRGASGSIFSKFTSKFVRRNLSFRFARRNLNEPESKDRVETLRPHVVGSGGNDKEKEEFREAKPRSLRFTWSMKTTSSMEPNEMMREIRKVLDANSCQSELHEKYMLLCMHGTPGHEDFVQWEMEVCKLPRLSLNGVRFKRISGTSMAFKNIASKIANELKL

Sequence of PRKCZ (human) (Q05513 whole entry, looked up): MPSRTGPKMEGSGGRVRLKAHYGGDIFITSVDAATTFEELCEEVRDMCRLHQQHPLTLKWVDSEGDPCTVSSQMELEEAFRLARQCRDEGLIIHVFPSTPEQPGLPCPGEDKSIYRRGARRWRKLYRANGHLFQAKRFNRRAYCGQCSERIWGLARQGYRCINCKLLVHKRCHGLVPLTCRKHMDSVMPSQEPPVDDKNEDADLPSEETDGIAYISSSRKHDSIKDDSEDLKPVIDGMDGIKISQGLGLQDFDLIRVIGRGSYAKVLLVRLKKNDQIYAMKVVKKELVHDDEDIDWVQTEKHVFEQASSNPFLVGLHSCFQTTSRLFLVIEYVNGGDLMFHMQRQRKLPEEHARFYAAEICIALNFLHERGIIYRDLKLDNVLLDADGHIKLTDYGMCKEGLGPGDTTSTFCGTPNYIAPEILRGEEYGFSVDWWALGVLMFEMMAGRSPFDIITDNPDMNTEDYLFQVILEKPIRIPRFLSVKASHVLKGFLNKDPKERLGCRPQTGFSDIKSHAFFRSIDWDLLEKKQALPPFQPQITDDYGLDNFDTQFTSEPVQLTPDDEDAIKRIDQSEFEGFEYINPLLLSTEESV
Sequence of GSK3B (human) (P49841 whole entry, looked up): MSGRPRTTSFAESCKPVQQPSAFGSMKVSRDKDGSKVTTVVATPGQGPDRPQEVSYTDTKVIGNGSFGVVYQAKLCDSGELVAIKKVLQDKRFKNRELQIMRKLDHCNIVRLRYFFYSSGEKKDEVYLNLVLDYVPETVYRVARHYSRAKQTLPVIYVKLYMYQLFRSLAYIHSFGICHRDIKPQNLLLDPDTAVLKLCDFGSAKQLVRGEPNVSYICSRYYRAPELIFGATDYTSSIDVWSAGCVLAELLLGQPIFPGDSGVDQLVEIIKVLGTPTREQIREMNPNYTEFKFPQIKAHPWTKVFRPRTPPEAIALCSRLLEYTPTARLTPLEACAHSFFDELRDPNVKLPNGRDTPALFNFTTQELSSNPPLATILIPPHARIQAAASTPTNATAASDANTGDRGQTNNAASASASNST

CNc1nc(-c2ccc3c(N)n[nH]c3c2)cc(N2C[C@@H](C(=O)NC3CCCCC3)CC[C@H]2C)n1
residual activity (EPHA2 (human); compound 0.01 µM): 110% | residual activity (EPHA2 (human); compound 0.1 µM): 118% | residual activity (EPHA2 (human); compound 1.0 µM): 100% | residual activity (EPHA2 (human); compound 10.0 µM): 84% | residual activity (BRSK1 (human); compound 0.01 µM): 110% | residual activity (BRSK1 (human); compound 0.1 µM): 95% | residual activity (BRSK1 (human); compound 1.0 µM): 53% | residual activity (BRSK1 (human); compound 10.0 µM): 11% | residual activity (MARK4 (human); compound 0.01 µM): 106% | residual activity (MARK4 (human); compound 0.1 µM): 114% | residual activity (MARK4 (human); compound 1.0 µM): 99% | residual activity (MARK4 (human); compound 10.0 µM): 103% | residual activity (GSK3B (human); compound 0.01 µM): 108% | residual activity (GSK3B (human); compound 0.1 µM): 111% | residual activity (GSK3B (human); compound 1.0 µM): 106% | residual activity (PRKCZ (human); compound 0.01 µM): 113% | residual activity (PRKCZ (human); compound 0.1 µM): 105% | residual activity (PRKCZ (human); compound 1.0 µM): 74% | residual activity (PRKCZ (human); compound 10.0 µM): 23% | residual activity (MAPK12 (human); compound 0.01 µM): 109% | residual activity (MAPK12 (human); compound 0.1 µM): 110% | residual activity (MAPK12 (human); compound 1.0 µM): 99% | residual activity (MAPK12 (human); compound 10.0 µM): 110% | residual activity (MST4 (human); compound 0.01 µM): 112% | residual activity (MST4 (human); compound 0.1 µM): 108% | residual activity (MST4 (human); compound 1.0 µM): 102% | residual activity (MST4 (human); compound 10.0 µM): 102% | residual activity (MAP2K2 (human); compound 1.0 µM): 114% | residual activity (MAP2K2 (human); compound 10.0 µM): 94% | residual activity (MAP3K5 (human); compound 1.0 µM): 106% | residual activity (MAP3K5 (human); compound 10.0 µM): 99% | residual activity ([1]; compound 0.01 µM): 104% | residual activity ([1]; compound 0.1 µM): 124% | residual activity ([1]; compound 1.0 µM): 110% | residual activity ([1]; compound 10.0 µM): 103% | residual activity (PAK6 (human); compound 0.01 µM): 108% | residual activity (PAK6 (human); compound 0.1 µM): 120% | residual activity (PAK6 (human); compound 1.0 µM): 99% | residual activity (PAK6 (human); compound 10.0 µM): 96% | residual activity (MAP3K11 (human); compound 0.01 µM): 100% | residual activity (MAP3K11 (human); compound 0.1 µM): 110% | residual activity (MAP3K11 (human); compound 1.0 µM): 80% | residual activity (MAP3K11 (human); compound 10.0 µM): 44% | residual activity (NUAK1 (human); compound 0.01 µM): 120% | residual activity (NUAK1 (human); compound 0.1 µM): 105% | residual activity (NUAK1 (human); compound 1.0 µM): 47% | residual activity (NUAK1 (human); compound 10.0 µM): 9% | residual activity (EPHB3 (human); compound 0.01 µM): 106% | residual activity (EPHB3 (human); compound 0.1 µM): 107% | residual activity (EPHB3 (human); compound 1.0 µM): 120% | residual activity (EPHB3 (human); compound 10.0 µM): 103% | residual activity (PRKCA (human); compound 0.01 µM): 104% | residual activity (PRKCA (human); compound 0.1 µM): 105% | residual activity (PRKCA (human); compound 1.0 µM): 98% | residual activity (PRKCA (human); compound 10.0 µM): 96% | residual activity (MARK1 (human); compound 1.0 µM): 99% | residual activity (MARK1 (human); compound 10.0 µM): 84% | residual activity (ERBB4 (human); compound 0.01 µM): 106% | residual activity (ERBB4 (human); compound 0.1 µM): 107% | residual activity (ERBB4 (human); compound 1.0 µM): 106% | residual activity (ERBB4 (human); compound 10.0 µM): 101% | residual activity (PAK4 (human); compound 0.01 µM): 108% | residual activity (PAK4 (human); compound 0.1 µM): 117% | residual activity (PAK4 (human); compound 1.0 µM): 100% | residual activity (MELK (human); compound 0.01 µM): 115% | residual activity (MELK (human); compound 0.1 µM): 77% | residual activity (MELK (human); compound 1.0 µM): 31% | residual activity (MELK (human); compound 10.0 µM): 22% | residual activity (NTRK1 (human); compound 1.0 µM): 94% | residual activity (NTRK1 (human); compound 10.0 µM): 84% | residual activity (MAP3K1 (human); compound 1.0 µM): 87% | residual activity (MAP3K1 (human); compound 10.0 µM): 104% | residual activity (MAPKAPK2 (human); compound 0.01 µM): 104% | residual activity (MAPKAPK2 (human); compound 0.1 µM): 111% | residual activity (MAPKAPK2 (human); compound 1.0 µM): 86% | residual activity (MAPKAPK2 (human); compound 10.0 µM): 84% | residual activity ([2]; compound 1.0 µM): 98% | residual activity ([2]; compound 10.0 µM): 36% | residual activity (INSR (human); compound 0.01 µM): 101% | residual activity (INSR (human); compound 0.1 µM): 103% | residual activity (INSR (human); compound 1.0 µM): 101% | residual activity (INSR (human); compound 10.0 µM): 89% | residual activity (HIPK3 (human); compound 0.01 µM): 111% | residual activity (HIPK3 (human); compound 0.1 µM): 105% | residual activity (HIPK3 (human); compound 1.0 µM): 99% | residual activity (HIPK3 (human); compound 10.0 µM): 103% | residual activity (AURKA (human); compound 0.01 µM): 112% | residual activity (AURKA (human); compound 0.1 µM): 115% | residual activity (AURKA (human); compound 1.0 µM): 98% | residual activity (AURKA (human); compound 10.0 µM): 89% | residual activity (MAPK9 (human); compound 0.01 µM): 117% | residual activity (MAPK9 (human); compound 0.1 µM): 126% | residual activity (MAPK9 (human); compound 1.0 µM): 104% | residual activity (MAPK9 (human); compound 10.0 µM): 114% | residual activity (MAP3K9 (human); compound 0.01 µM): 110% | residual activity (MAP3K9 (human); compound 0.1 µM): 111% | residual activity (MAP3K9 (human); compound 1.0 µM): 93% | residual activity (MAP3K9 (human); compound 10.0 µM): 78% | residual activity (PKN2 (human); compound 0.01 µM): 90% | residual activity (PKN2 (human); compound 0.1 µM): 102% | residual activity (PKN2 (human); compound 1.0 µM): 118% | residual activity (PKN2 (human); compound 10.0 µM): 81% | residual activity (DYRK2 (human); compound 0.01 µM): 100% | residual activity (DYRK2 (human); compound 0.1 µM): 108% | residual activity (DYRK2 (human); compound 1.0 µM): 97% | residual activity (IRAK4 (human); compound 0.01 µM): 109% | residual activity (IRAK4 (human); compound 0.1 µM): 112% | residual activity (IRAK4 (human); compound 1.0 µM): 92% | residual activity (IRAK4 (human); compound 10.0 µM): 99% | residual activity (PIM1 (human); compound 0.01 µM): 99% | residual activity (PIM1 (human); compound 0.1 µM): 100% | residual activity (PIM1 (human); compound 1.0 µM): 112% | residual activity (PIM1 (human); compound 10.0 µM): 93% | residual activity (EEF2K (human); compound 0.01 µM): 108% | residual activity (EEF2K (human); compound 0.1 µM): 100% | residual activity (EEF2K (human); compound 1.0 µM): 105% | residual activity (EEF2K (human); compound 10.0 µM): 100% | residual activity (MAP3K7 TAB1 (human); compound 1.0 µM): 99% | residual activity (MAP3K7 TAB1 (human); compound 10.0 µM): 79% | residual activity (MAP2K6 (human); compound 1.0 µM): 87% | residual activity (MAP2K6 (human); compound 10.0 µM): 94% | residual activity (MARK2 (human); compound 0.01 µM): 113% | residual activity (MARK2 (human); compound 0.1 µM): 114% | residual activity (MARK2 (human); compound 1.0 µM): 96% | residual activity (MARK2 (human); compound 10.0 µM): 102%

— the kinase profiling compilation of Christmann-Franck et al. (2016)
